In data set [1] the target is T1, memapsin 2 (Cricetulus griseus, UniProt G3IAK4).
T1 construct: endogenous in cells; host or cells: Chinese hamster ovary cells over-expressing human APP695 (London + Swedish)
Put plainly: Cellular Aβ IC50 determination (Aβ40 sandwich ELISA). It is filed as cell-based. Conditions: Chinese hamster ovary cells over-expressing human APP695 (London and Swedish mutations), Aβ40, 24 h; read-out: M2 IC50. Here is the method:
The potency of compounds against memapsin 2 activity was determined in a cellular assay of Aβ production. […] Chinese hamster ovary cells that over-express human APP695 with the London and Swedish mutations were seeded in multi-well plates at 10% confluency. Compounds are dissolved in DMSO to concentrations near 1 mM, and diluted into culture media to a final concentration near 4 μM (final 0.4% DMSO). Compounds were diluted serially and applied to cells in multi-well plates 48 h after seeding. Incubation was continued in 5% CO2 at 37° C. for 24 h. Aliquots were removed and assayed for Aβ40 content using a sandwich ELISA (BioSource International). Amount of Aβ40 over the range of concentration of compounds, relative to control incubations, were fit to a 4-parameter IC50 model.
For orientation: In an ELISA, binding on a coated surface is turned into a signal by an enzyme label.

The target in data set [2] is T2, CYP3A4 (Homo sapiens, UniProt P08684).
T2 construct: with human liver microsomes (HLM) at a final protein concentration of 0.1 mg/mL protein; from tissue; host or cells: human liver microsomes
T2 sequence (P08684 whole entry): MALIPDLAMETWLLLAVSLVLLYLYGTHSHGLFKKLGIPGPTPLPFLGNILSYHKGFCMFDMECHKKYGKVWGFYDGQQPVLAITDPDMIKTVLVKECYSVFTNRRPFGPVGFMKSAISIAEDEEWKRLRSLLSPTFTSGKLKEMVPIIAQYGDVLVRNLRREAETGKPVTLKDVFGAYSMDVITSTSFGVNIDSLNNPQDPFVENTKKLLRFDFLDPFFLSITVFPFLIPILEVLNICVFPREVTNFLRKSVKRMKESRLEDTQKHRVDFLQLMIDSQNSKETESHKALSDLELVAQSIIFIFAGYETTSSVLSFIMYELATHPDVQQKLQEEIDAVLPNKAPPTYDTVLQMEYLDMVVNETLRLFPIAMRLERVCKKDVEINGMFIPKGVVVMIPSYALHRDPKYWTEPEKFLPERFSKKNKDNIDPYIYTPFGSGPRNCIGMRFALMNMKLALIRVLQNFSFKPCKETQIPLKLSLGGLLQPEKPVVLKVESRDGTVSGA
Kind of data set: Determination of CYP3A4 inhibition (midazolam metabolism). In kind it is in vitro ADME. The settings on record: human liver microsomes, midazolam substrate. The protocol:
To evaluate the drug-drug interaction potential for compounds, the potency to inhibit the major metabolic cytochrome CYP450 isoform 3A4 was assessed. The inhibition constant Ki was determined for inhibition of the metabolism of midazolam, a CYP3A4 substrate.
CYP3A4 Ki assays were performed following a recently published protocol with slight modifications (Di, L., Kerns, E. H., Li, S. Q., and Carter, G. T. (2007) Comparison of cytochrome P450 inhibition assays for drug discovery using human liver microsomes with LC-MS, rhCYP450 isozymes with fluorescence, and double cocktail with LC-MS. International Journal of Pharmaceutics 335: 1-11). The P450 inhibition assay was performed in 96-well plates at 37.2° C. in a shaking incubator. […]
After incubation for the specified time in a humidified shaking incubator, 20 μL of the reaction mixture was removed and the reactions were terminated by adding […] of cold acetonitrile. […] Formation of 1′-hydroxymidazolam was measured by monitoring a specific SRM (342>203) transition for the CYP3A4 metabolite.
Data were expressed as the relative quantity of midazolam metabolite relative to control incubations. Initial velocities were obtained by multiplying the relative quantity by the initial substrate concentration and dividing by the incubation duration. […]
(Liver microsomes are a subcellular fraction often used to study metabolism.)

Data set [3] is described as follows: Hepatic intrinsic clearance in liver microsomes. In kind it is in vitro ADME. Conditions: pH 7.4; human liver microsomes, LC/MS/MS; read-out: HLM CL. Here is the method: To 500 μl of 200 mM Na^+ K^+ phosphate buffer (pH 7.4), 100 μl of 1 mM EDTA solution was added followed by 100 μl of 2 mg protein/ml human liver microsomes. A 10 μl aliquot of test compound (20 mM stock in 50% acetonitrile) was diluted further with 40 μl of H2O (total assay volume 750 μl. Assay mixture is incubated for 5 minutes at 37° C. The assay was initiated by addition of 250 μl of 4 mM NADPH solution. Incubation was continued at 37° C. Separate reaction mixtures were prepared for 0, 5, 10, 20, and 30 min durations. Individual reactions were halted by addition of 150 μl of 100% acetonitrile. Internal standard (10 μl of 100 ng/ml diazepam solution) was added. Concentration of the test compound in each separate reaction was measured using LC/MS/MS and a standard curve for the test compound according to standard procedures.
The hepatic intrinsic clearance in liver microsome was determined by the following procedure described by Davies and Morris (Davies, B. and Morris, T. (19930) Physiological parameters in laboratory animals and humans. Pharm Res. 10:1093-1095) detailing the relationship of in vitro clearance to physiological parameters in animals and human subjects.
The amount of compound remaining at each time point was expressed relative to the amount present in the initial (0 min) incubation. The relationship of relative amount vs. time was used to determine the half life of the compound in the microsome assay. The concentration independent rate constant, k1, was determined from rectangular hyperbolic fit:
% remaining=100*(e^−k^1^T)
where T is time (in minutes), from the relationship of relative amount vs. time. Alternatively, k1 was determined from a transform of the equation, where
Conversion to in vivo clearance was obtained from the relation (Davies and Morris, 1993):
where v=velocity of metabolism, [S] is the concentration of the compound, and volumes are expressed in mL.

Data set [4] has as its target memapsin 2 (Homo sapiens, UniProt P56817). Kind of data set: Inhibition of memapsin 2 beta-secretase activity (fluorogenic substrate FS-2). In kind it is biochemical. The settings on record: pH 4, 37° C., read-out: M2 Ki. The protocol:
Potency of compounds were determined by measurement of their inhibition of memapsin 2 activity toward a fluorescent substrate. Kinetic inhibition experiments were performed using the procedure as described in Ermolieff, et al. (Biochemistry 39:12450-12456 (2000), the teachings of which are incorporated hereby in their entirety). Briefly, assays were performed at pH 4, 37° C., by pre-incubation of memapsin 2 enzyme with compound for 20 minutes. Activity measurements were initiated by addition of a fluorogenic substrate FS-2 (Bachem Americas, Torrance, Calif.) MCA-SEVNLDAEFR-DNP (SEQ ID NO.: 2). The substrate was derived from 10 amino acids of the human amyloid precursor protein (APP), with the Swedish variant amino acids at the beta-secretase cleavage site. The terminal amino acid was modified from arginine to lysine to facilitate derivatization with a functional group for detection by autofluorescence. The amino acid sequence of the “core” peptide of the substrate is SEVNLDAEFK (SEQ ID NO.: 3). The amino terminus was derivatized with (7-methoxycoumarin-4-yl)acetyl (MCA), and the epsilon amine of the lysine side chain of the terminal residue (K in sequence SEVNLDAEFK (SEQ ID NO.: 3)) was derivatized with 2,4-dinitrophenyl (DNP).

Data set [5] concerns the target Cathepsin D (UniProt P07339). Put plainly: Inhibition of cathepsin D activity (MALDI-TOF, substrate peptide). In kind it is biochemical. Conditions: substrate peptide NH3-ELDLAVEFWHDR-CO2, pH 4.1, 37 degrees C.; read-out: CD Ki.

T1 sequence (G3IAK4 22-501): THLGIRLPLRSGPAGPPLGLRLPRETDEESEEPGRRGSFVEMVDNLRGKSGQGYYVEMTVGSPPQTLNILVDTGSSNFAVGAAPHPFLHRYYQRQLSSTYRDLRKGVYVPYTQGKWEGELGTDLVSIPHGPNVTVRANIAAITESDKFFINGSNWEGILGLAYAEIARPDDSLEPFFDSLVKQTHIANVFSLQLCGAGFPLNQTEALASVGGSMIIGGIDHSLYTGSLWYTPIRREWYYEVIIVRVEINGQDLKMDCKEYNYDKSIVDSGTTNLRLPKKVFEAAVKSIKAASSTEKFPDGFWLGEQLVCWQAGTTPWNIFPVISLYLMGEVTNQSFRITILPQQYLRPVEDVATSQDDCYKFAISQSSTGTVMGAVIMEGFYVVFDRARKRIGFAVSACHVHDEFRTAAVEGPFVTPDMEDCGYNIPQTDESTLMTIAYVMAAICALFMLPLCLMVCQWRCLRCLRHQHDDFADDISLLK
memapsin 2 (Homo sapiens, UniProt P56817), sequence (P56817 46-501): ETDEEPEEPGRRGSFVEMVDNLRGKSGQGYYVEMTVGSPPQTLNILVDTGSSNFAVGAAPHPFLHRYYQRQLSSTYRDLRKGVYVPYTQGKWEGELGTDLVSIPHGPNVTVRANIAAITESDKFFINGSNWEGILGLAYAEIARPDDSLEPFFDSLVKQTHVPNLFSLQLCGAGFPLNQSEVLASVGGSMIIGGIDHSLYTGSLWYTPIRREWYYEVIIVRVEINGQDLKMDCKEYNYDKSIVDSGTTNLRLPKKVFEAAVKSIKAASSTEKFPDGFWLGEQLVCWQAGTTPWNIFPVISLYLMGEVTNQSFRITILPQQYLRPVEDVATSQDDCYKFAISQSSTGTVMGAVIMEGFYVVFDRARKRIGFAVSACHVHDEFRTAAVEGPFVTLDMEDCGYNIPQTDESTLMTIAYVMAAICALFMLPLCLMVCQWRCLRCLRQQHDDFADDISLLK

As to `Cc1csc([C@H]2CCCN2C(=O)c2cc(C(=O)N[C@@H](Cc3ccccc3)[C@H](O)[C@H]3CCCN3)cc(N3CCCCS3(=O)=O)c2)n1` [1-78, N-((1R,2S)-1-hydroxy-3-phenyl-1-((R)-pyrrolidin-2-yl)propan-2-yl)-3-((R)-2-(4-methylthiazol-2-yl)pyrrolidine-1-carbonyl)-5-(thiazinanyl-S,S-dioxide)benzamide], in data set [1], the half-maximal inhibitory concentration (IC50) (usually the midpoint of a concentration-inhibition curve) was under 500 nM. In addition, the inhibitory constant (Ki) – broadly, a dissociation constant, usually derived from enzyme kinetics or from competition with a known ligand – in data set [2] is over 10000 nM. In addition, the CLint scaled at 200 μM in data set [3] is under 400 mL/min/kg.
Consider `Cc1csc([C@H]2CCCN2C(=O)c2cc(C(=O)N[C@@H](Cc3cc(F)cc(F)c3)[C@H](O)[C@H]3CCCN3)cc(N3CCCCS3(=O)=O)c2)n1` [1-87, N-((1R,2S)-1-hydroxy-3-(3,5-difluorophenyl)-1-((R)-pyrrolidin-2-yl)propan-2-yl)-3-((R)-2-(4-methylthiazol-2-yl)pyrrolidine-1-carbonyl)-5-(thiazinanyl-S,S-dioxide)benzamide], for which the Ki in data set [4] was under 250 nM; in data set [5] it was over 500 nM; in data set [2], over 10000 nM. In addition, the IC50 in data set [1] is under 500 nM. The CLint scaled at 200 μM in data set [3] was under 400 mL/min/kg.
Turning to `Cc1csc([C@H]2CCCN2C(=O)c2cc(C(=O)N[C@@H](Cc3ccccc3)[C@H](O)[C@H]3CCCN3)cc(N3CCCS3(=O)=O)c2)n1` [1-89, N-((1R,2S)-1-hydroxy-3-phenyl-1-((R)-pyrrolidin-2-yl)propan-2-yl)-3-((R)-2-(4-methylthiazol-2-yl)pyrrolidine-1-carbonyl)-5-([1,2]thiazolidyl-S,S-dioxide)benzamide], the inhibitory constant (Ki) was under 250 nM in data set [4] and over 500 nM in data set [5]. The IC50 in data set [1] was under 500 nM. For the same compound, in data set [3], the CLint scaled at 200 μM was under 400 mL/min/kg.
With `Cc1csc([C@H]2CCCN2C(=O)c2cc(C(=O)N[C@@H](Cc3cc(F)cc(F)c3)[C@H](O)[C@H]3CCCN3)cc(N3CCCS3(=O)=O)c2)n1` [1-90, N-((1R,2S)-1-hydroxy-3-(3,5-difluorophenyl)-1-((R)-pyrrolidin-2-yl)propan-2-yl)-3-((R)-2-(4-methylthiazol-2-yl)pyrrolidine-1-carbonyl)-5-([1,2]thiazolidyl-S,S-dioxide)benzamide], the inhibition constant (Ki) in data set [4] was under 250 nM; in data set [5], over 500 nM. Further, the IC50 in data set [1] was under 500 nM. The CLint scaled at 200 μM in data set [3] was under 400 mL/min/kg.
For `Cc1csc([C@H]2CCCN2C(=O)c2cc(C(=O)N[C@@H](Cc3cccc(F)c3)[C@H](O)[C@H]3CCCN3)cc(N3CCCS3(=O)=O)c2)n1` [1-91, N-((1R,2S)-1-hydroxy-3-(5-fluorophenyl)-1-((R)-pyrrolidin-2-yl)propan-2-yl)-3-((R)-2-(4-methylthiazol-2-yl)pyrrolidine-1-carbonyl)-5-([1,2]thiazolidyl-S,S-dioxide)benzamide] the same measures were under 250 nM, over 500 nM, 500 to 1000 nM and under 400 mL/min/kg.
